Consider 13 compounds from patent US8058427B2, “Coumarin compounds and their use for treating cancer” (National Health Research Institutes, priority 2008, dated 2011).

Holding throughout (type): cell-based
Assay [1] has as its system HONE-1 (nasopharyngeal carcinoma). Briefly: Growth inhibition, methylene blue dye assay, HONE-1. Particulars: Homo sapiens, HONE1, 72 h. As for the experimental part: (§1) Compound 1 was evaluated against 21 human tumor cell lines derived from nine cancer cell types: nasopharyngeal carcinoma (HONE-1, CPT 30, and HONE-cis6), cervical carcinoma (KB, KB-CPT100, KB7D, KB-1036, KB-S15, and KB-vin10), gastric carcinoma (TSGH), breast carcinoma (MCF-7), colorectal carcinoma (HT29), non-small cell lung carcinoma (H460), lymphoma (BJAB and H9), leukemia (CEM and HL 60), and hepatocellular carcinoma (Hep 3B, Hep G2, Huh 7, and Hcc36). […] Compound 140 was tested against the following 15 cell lines: HONE-1, CPT 30, and HONE-cis6, KB, KB-CPT100, KB7D, KB-1036, KB-S 15, and KB-vin10, TSGH, MCF-7, H460, BJAB, H9, and Hep G2. Compound 32 was tested against the following 8 cell lines: HONE-1, KB, TSGH, MCF-7, H460, BJAB, H9, and Hep G2.
(§2) Cells in logarithmic growth phase were cultured at a density of 5000 cells/ml/well in a 24-well plate. Drug-resistant cells were cultured in a medium free of test compounds for 3 days before use. The cells were exposed to various concentrations of a test compound for 72 h. The methylene blue dye assay was used to evaluate the effect of the test compound on cell growth, as has been described in Finlay et al., Anal. Biochem. 1984, 139, 272-277. The IC50 value resulting from 50% inhibition of cell growth was calculated graphically as a comparison with control growth.

The test system of assay [2] is CPT30 (nasopharyngeal carcinoma). Briefly: Growth inhibition, methylene blue dye assay, CPT30. To be noted: Homo sapiens; CPT30, drug-resistant, camptothecin-driven selection, 72 h. As for the experimental part: as §1, §2
Assay [3] relates to HONE-cis6 (nasopharyngeal carcinoma). In words: Growth inhibition, methylene blue dye assay, HONE-cis6. To be noted: Homo sapiens; HONE-cis6, drug-resistant, cisplatin-driven selection, 72 h. As for the experimental part:
as §1, §2

In assay [4] the test system is KB (cervical carcinoma). In words: Growth inhibition, methylene blue dye assay, KB. To be noted: Homo sapiens, 72 h. As for the experimental part: as §1, §2
The test system of assay [5] is KB-CPT100 (cervical carcinoma). In words: Growth inhibition, methylene blue dye assay, KB-CPT100. To be noted: Homo sapiens, KBCPT100; KB-CPT100, drug-resistant, camptothecin-driven selection, 72 h. As for the experimental part:
as §1, §2

In assay [6] the test system is KB7D (cervical carcinoma). Briefly: Growth inhibition, methylene blue dye assay, KB7D. Particulars: Homo sapiens, VP-16-driven selection, 72 h. As for the experimental part:
as §1, §2

Assay [7] relates to KB-1036 (cervical carcinoma). In words: Growth inhibition, methylene blue dye assay, KB-1036. Particulars: Homo sapiens; KB-1036, D-501036 driven selection, 72 h. As for the experimental part:
as §1, §2

The subject of assay [8] is KB-S15 (cervical carcinoma). Briefly: Growth inhibition, methylene blue dye assay, KB-S15. Particulars: Homo sapiens; KB-S15, drug-resistant, paclitaxel-driven selection, 72 h. As for the experimental part: as §1, §2
The subject of assay [9] is KB-vin10 (cervical carcinoma). In words: Growth inhibition, methylene blue dye assay, KB-vin10. To be noted: Homo sapiens; KB-vin10, vincristine-driven selection, 72 h. As for the experimental part: as §1, §2
Assay [10] relates to TSGH (gastric carcinoma). In words: Growth inhibition, methylene blue dye assay, TSGH. Particulars: Homo sapiens, 72 h. As for the experimental part: as §1, §2
For assay [11], the system named is MCF-7 (breast carcinoma). In words: Growth inhibition, methylene blue dye assay, MCF7. Particulars: Homo sapiens, MCF7, 72 h. As for the experimental part: as §1, §2
For assay [12], the system named is HT29 (colorectal carcinoma). Briefly: Growth inhibition, methylene blue dye assay, HT29. To be noted: Homo sapiens, HT-29, HT29, 72 h. As for the experimental part:
as §1, §2

Assay [13] relates to H460 (non-small cell lung carcinoma). Briefly: Growth inhibition, methylene blue dye assay, H460. To be noted: Homo sapiens, NCI-H460, H460, 72 h. As for the experimental part: as §1, §2
The subject of assay [14] is BJAB (lymphoma). Briefly: Growth inhibition, methylene blue dye assay, BJAB. To be noted: Homo sapiens, 72 h. As for the experimental part: as §1, §2
For assay [15], the system named is H9 (lymphoma). Briefly: Growth inhibition, methylene blue dye assay, H9. To be noted: Homo sapiens, H9, 72 h. As for the experimental part:
as §1, §2

Assay [16] concerns CEM (leukemia). Briefly: Growth inhibition, methylene blue dye assay, CEM. Particulars: Homo sapiens, 72 h. As for the experimental part: as §1, §2
The subject of assay [17] is HL 60 (leukemia). Briefly: Growth inhibition, methylene blue dye assay, HL60. Particulars: Homo sapiens, HL60, 72 h. As for the experimental part:
as §1, §2

For assay [18], the system named is Hep 3B (hepatocellular carcinoma). Briefly: Growth inhibition, methylene blue dye assay, Hep 3B. Particulars: Homo sapiens, Hep3B, 72 h. As for the experimental part: as §1, §2
The test system of assay [19] is Hep G2 (hepatocellular carcinoma). In words: Growth inhibition, methylene blue dye assay, Hep G2. To be noted: Homo sapiens, HepG2, Hep G2, 72 h. As for the experimental part:
as §1, §2

Assay [20] deals with Huh 7 (hepatocellular carcinoma). Briefly: Growth inhibition, methylene blue dye assay, Huh 7. To be noted: Homo sapiens, Huh 7, 72 h. As for the experimental part: as §1, §2
Assay [21] relates to Hcc36 (hepatocellular carcinoma). Briefly: Growth inhibition, methylene blue dye assay, Hcc36. To be noted: Homo sapiens, Hcc36, 72 h. As for the experimental part:
as §1, §2

Assay [22] deals with human tumor cell lines. In words: Growth inhibition, methylene blue dye assay, panel of tumor cell lines. To be noted: most of the tested cell lines, 72 h. As for the experimental part: as §1, §2
Assay [23] deals with Human cervical carcinoma KB cells. In words: Growth inhibition assay, KB cells (MTS). To be noted: 72 h, read-out: IC50 (concentration causing 50% cell growth inhibition). As for the experimental part:
Anticancer activities of the compounds of this invention were evaluated using a growth inhibition assay described in Kuo et al., Cancer Res. 2004, 64(13), 4621-4628.
Human cervical carcinoma KB cells were maintained in plastic dishes in DMEM medium supplemented with 10% fetal bovine serum. For in vitro treatment, tumor cells were seeded in […] of culture medium/well in 96-well plates to a final cell density of 6×10^3 cell/mL and incubated in a CO2 incubator at 37° C. for 24 h. The cells were treated with at least five different concentrations of a test compound, and incubated in a CO2 incubator at 37° C. for 72 h. The number of viable cells was estimated using MTS assay and absorbance was measured at 490 nm. For each test compound, dose-response curves were measured with at least five different drug concentrations, and the concentration causing 50% cell growth inhibition (IC50) compared with the control was calculated.

For the compound `Cc1cc(=O)oc2c1ccc1oc(C(=O)c3ccccc3)c(-c3ccccc3)c12` [Compound 1, 8-benzoyl-4-methyl-9-phenyl-furo[2,3-h]chromen-2-one], the IC50 in [1] is 2 nM; in [2], 8.5 nM; in [3], 4.5 nM; in [4], 1.3 to 1.8 nM; in [5], 6.25 nM; in [6], 0.8 nM. Also, the IC50 worked out at 4 nM in [7]; 0.5 nM in assay [8]; 2.5 nM in [9]; 17 nM in assay [10]; 4 nM in [11]; 7 nM in assay [12]. Also, the IC50 in assay [13] was determined as 0.5 nM; in assay [14], 110 nM; in assay [15], 3.5 nM; in assay [16] it was 1000 nM; in [17], 1000 nM; in assay [18], 35000 nM. For the same compound, the IC50 in assay [19] was 3500 nM; in assay [20] it was 26700 nM; in assay [21], 10800 nM; in [22], < 10 nM.

As for `COc1ccc(C(=O)c2oc3ccc4c(C)cc(=O)oc4c3c2-c2ccccc2)cc1` [Compound 32], the IC50 in assay [1] stood at 55 nM; in assay [4], 41 nM; in assay [10] it was 150 nM; in assay [11], 150 nM; in [13] it was 40 nM; in assay [14], 45 nM. Also, the IC50 in assay [15] was 124 nM; in [19], 5500 nM; in assay [22], < 150 nM.

Consider `Cc1cc(=O)oc2c1ccc1oc(C(=O)c3ccccc3)c(-c3ccc(Br)cc3)c12` [Compound 140], for which the IC50 in [1] was determined as 3 nM; in assay [2] it was 10.5 nM; in assay [3] it was 10 nM; in assay [4], 7.7 nM; in assay [5] it was 9 nM; in [6], 8 nM. Besides, the IC50 in assay [7] was determined as 13 nM; in assay [8], 10 nM; in [9] it was 10 nM; in assay [10], 41 nM; in [11], 13 nM; in assay [13], 3 nM. Further, the IC50 in assay [14] is 60 nM; in [15], 20 nM; in assay [19] it was 2600 nM; in assay [22] it was < 10 nM.

For `Cc1cc(=O)oc2c1ccc1oc(C(=O)c3ccccc3)c(-c3ccc(Cl)c(Cl)c3)c12` [Compound 224], in assay [23], the IC50 was in the range of 101 to 999 nM.

`Cc1cc(=O)oc2c1ccc1oc(C(O)c3ccccc3)cc12` (stereo not drawn) [Compound 226]: in [23], the IC50 is 101 to 999 nM.

Consider `CCCCCCCCCCOc1cccc(C(=O)c2oc3ccc4c(C)cc(=O)oc4c3c2-c2ccccc2)c1` [Compound 244], for which the IC50 in [23] lay in the range of 101 to 999 nM.

In the case of `COc1ccc(-c2c(C(=O)c3ccccc3)oc3ccc4c(C)cc(=O)oc4c23)cc1` [Compound 248], in assay [23], the IC50 fell in the range of 101 to 999 nM.

With `CCN(CCO)CCCOc1cccc(C(=O)c2oc3ccc4c(C)cc(=O)oc4c3c2-c2ccccc2)c1` [Compound 251], the IC50 in assay [23] lay within 101 to 999 nM.

In the case of `CCCOc1cccc(C(=O)c2oc3ccc4c(C)cc(=O)oc4c3c2-c2ccc(Br)cc2)c1` [Compound 253], the IC50 in assay [23] was 101 to 999 nM.

Regarding `Cc1cc(=O)oc2c1ccc1oc(C(=O)c3cccs3)c(-c3ccc(Br)cc3)c12` [Compound 254], in assay [23], the IC50 was in the range of 101 to 999 nM.

With `Cc1cc(=O)oc2c1ccc1oc(C(=O)c3ccc(N(C)C)cc3)c(-c3ccccc3)c12` [Compound 264], the IC50 in assay [23] was 101 to 999 nM.

Consider `Cc1cc(=O)oc2c1ccc1oc(C(=O)c3ccc(OCCN4CCOCC4)cc3)c(-c3ccccc3)c12` [Compound 265], for which the IC50 in [23] lay within 1000 to 10000 nM.

Take `Cc1cc(=O)oc2c1ccc1oc(C(=O)c3ccc(OCCN(C)C)cc3)c(-c3ccccc3)c12` [Compound 266]: the IC50 in assay [23] fell in the range of 1000 to 10000 nM.
